Measurements as given in PubChem BioAssay (NCI).
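96-well plates; 48 h exposure; 5 concentrations. Endpoints by linear interpolation between flanking doses. Not reached: highest tested concentration assigned. Here, GI50 denotes the concentration required for 50% inhibition of growth. The concentration for full growth arrest is given as TGI.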

Assays:
Assay in all cases: DTP human tumour cell line panel, 48 h
786-0 renal = test system: 786-0 renal
A498 renal = test system: A498 renal
A549 NSCLC = test system: A549 NSCLC
ACHN renal = test system: ACHN renal
BT-549 breast = test system: BT-549 breast
CAKI-1 renal = test system: CAKI-1 renal
CCRF-CEM leukemia = test system: CCRF-CEM leukemia
COLO 205 colon = test system: COLO 205 colon
DU-145 prostate = test system: DU-145 prostate
EKVX NSCLC = test system: EKVX NSCLC
HCC-2998 colon = test system: HCC-2998 colon
HCT-116 colon = test system: HCT-116 colon
HCT-15 colon = test system: HCT-15 colon
HL-60(TB) leukemia = test system: HL-60(TB) leukemia
HOP-62 NSCLC = test system: HOP-62 NSCLC
HOP-92 NSCLC = test system: HOP-92 NSCLC
HS 578T breast = test system: HS 578T breast
HT29 colon = test system: HT29 colon
IGROV1 ovarian = test system: IGROV1 ovarian
K-562 leukemia = test system: K-562 leukemia
KM12 colon = test system: KM12 colon
LOX IMVI melanoma = test system: LOX IMVI melanoma
M14 melanoma = test system: M14 melanoma
MALME-3M melanoma = test system: MALME-3M melanoma
MCF7 breast = test system: MCF7 breast
MDA-MB-231 breast = test system: MDA-MB-231 breast
MDA-MB-435 = test system: MDA-MB-435
MDA-MB-468 breast = test system: MDA-MB-468 breast
MOLT-4 leukemia = test system: MOLT-4 leukemia
NCI-H226 lung = test system: NCI-H226 lung
NCI-H23 lung = test system: NCI-H23 lung
NCI-H460 lung = test system: NCI-H460 lung
NCI-H522 lung = test system: NCI-H522 lung
OVCAR-3 ovarian = test system: OVCAR-3 ovarian
OVCAR-4 ovarian = test system: OVCAR-4 ovarian
OVCAR-5 ovarian = test system: OVCAR-5 ovarian
OVCAR-8 ovarian = test system: OVCAR-8 ovarian
PC-3 prostate = test system: PC-3 prostate
RPMI-8226 leukemia = test system: RPMI-8226 leukemia
RXF 393 renal = test system: RXF 393 renal
SF-268 CNS = test system: SF-268 CNS
SF-295 CNS = test system: SF-295 CNS
SF-539 CNS = test system: SF-539 CNS
SK-MEL-2 melanoma = test system: SK-MEL-2 melanoma
SK-MEL-28 melanoma = test system: SK-MEL-28 melanoma
SK-MEL-5 melanoma = test system: SK-MEL-5 melanoma
SK-OV-3 ovarian = test system: SK-OV-3 ovarian
SN12C renal = test system: SN12C renal
SNB-19 CNS = test system: SNB-19 CNS
SNB-75 CNS = test system: SNB-75 CNS
SR leukemia = test system: SR leukemia
SW-620 colon = test system: SW-620 colon
T-47D breast = test system: T-47D breast
TK-10 renal = test system: TK-10 renal
U251 CNS = test system: U251 CNS
UACC-257 melanoma = test system: UACC-257 melanoma
UACC-62 melanoma = test system: UACC-62 melanoma
UO-31 renal = test system: UO-31 renal

## COc1ccccc1[C@H]1C(C(=O)c2ccc(Cl)cc2)C2(N[C@@H]1c1ccccc1)C(=O)Nc1ccccc12 (stereo partly specified)
786-0 renal
  GI50: 2.13 µM
  TGI: 10.1 µM
A498 renal
  GI50: 4.75 µM
  TGI: 18 µM
A549 NSCLC
  GI50: 1.99 µM
  TGI: 12 µM
ACHN renal
  GI50: 1.99 µM
  TGI: 22.5 µM
BT-549 breast
  GI50: 1.97 µM
  TGI: 6.57 µM
CAKI-1 renal
  GI50: 1.23 µM
  TGI: 51.5 µM
CCRF-CEM leukemia
  GI50: 1.91 µM
  TGI: 8.25 µM
COLO 205 colon
  GI50: 2.25 µM
  TGI: 9.75 µM
DU-145 prostate
  GI50: 2.45 µM
  TGI: 24.9 µM
EKVX NSCLC
  GI50: 2.13 µM
  TGI: 61.5 µM
HCC-2998 colon
  GI50: 2.1 µM
  TGI: 7.72 µM
HCT-116 colon
  GI50: 1.5 µM
  TGI: 4.66 µM
HCT-15 colon
  GI50: 1.9 µM
  TGI: 11.5 µM
HL-60(TB) leukemia
  GI50: 1.42 µM
  TGI: 5.48 µM
HOP-62 NSCLC
  GI50: 3.86 µM
  TGI: 14 µM
HOP-92 NSCLC
  GI50: 1.79 µM
  TGI: 5.88 µM
HS 578T breast
  GI50: 1.67 µM
  TGI: 10.4 µM
HT29 colon
  GI50: 1.49 µM
  TGI: 4.1 µM
IGROV1 ovarian
  GI50: 1.95 µM
  TGI: 11.6 µM
K-562 leukemia
  GI50: 1.78 µM
  TGI: 44.4 µM
KM12 colon
  GI50: 2.45 µM
  TGI: 14.6 µM
LOX IMVI melanoma
  GI50: 1.55 µM
  TGI: 6.15 µM
M14 melanoma
  GI50: 1.81 µM
  TGI: 7.63 µM
MALME-3M melanoma
  GI50: 3.36 µM
  TGI: 12.1 µM
MCF7 breast
  GI50: 1.67 µM
  TGI: 8.88 µM
MDA-MB-231 breast
  GI50: 1.6 µM
  TGI: 5.79 µM
MDA-MB-435
  GI50: 1.48 µM
  TGI: 3.73 µM
MDA-MB-468 breast
  GI50: 1.24 µM
  TGI: 3.85 µM
MOLT-4 leukemia
  GI50: 1.75 µM
  TGI: 16.1 µM
NCI-H226 lung
  GI50: 1.61 µM
  TGI: 9.08 µM
NCI-H23 lung
  GI50: 1.83 µM
  TGI: 8.71 µM
NCI-H460 lung
  GI50: 1.21 µM
  TGI: 2.89 µM
NCI-H522 lung
  GI50: 1.24 µM
  TGI: 4.17 µM
OVCAR-3 ovarian
  GI50: 2.19 µM
  TGI: 12.1 µM
OVCAR-4 ovarian
  GI50: 2.36 µM
  TGI: 31.8 µM
OVCAR-5 ovarian
  GI50: 3.24 µM
  TGI: 19.5 µM
OVCAR-8 ovarian
  GI50: 1.94 µM
  TGI: 8.55 µM
PC-3 prostate
  GI50: 1.85 µM
  TGI: 13.6 µM
RPMI-8226 leukemia
  GI50: 2.06 µM
  TGI: 21.9 µM
RXF 393 renal
  GI50: 1.32 µM
  TGI: 3.51 µM
SF-268 CNS
  GI50: 2.19 µM
  TGI: 29.8 µM
SF-295 CNS
  GI50: 2.39 µM
  TGI: 12.6 µM
SF-539 CNS
  GI50: 2.83 µM
  TGI: 10.5 µM
SK-MEL-2 melanoma
  GI50: 1.73 µM
  TGI: 6.06 µM
SK-MEL-28 melanoma
  GI50: 4.16 µM
  TGI: 13.2 µM
SK-MEL-5 melanoma
  GI50: 1.87 µM
  TGI: 6.52 µM
SK-OV-3 ovarian
  GI50: 4.24 µM
  TGI: 55.3 µM
SN12C renal
  GI50: 1.24 µM
  TGI: 2.9 µM
SNB-19 CNS
  GI50: 3.34 µM
  TGI: 61.5 µM
SNB-75 CNS
  GI50: 1.13 µM
  TGI: 13.2 µM
SR leukemia
  GI50: 1.42 µM
  TGI: 4.26 µM
SW-620 colon
  GI50: 1.86 µM
  TGI: 24.4 µM
T-47D breast
  GI50: 1.97 µM
  TGI: 44.1 µM
TK-10 renal
  GI50: 3.68 µM
  TGI: 33.2 µM
U251 CNS
  GI50: 1.81 µM
  TGI: 7.38 µM
UACC-257 melanoma
  GI50: 2.63 µM
  TGI: 14 µM
UACC-62 melanoma
  GI50: 1.86 µM
  TGI: 8.04 µM
UO-31 renal
  GI50: 1.11 µM
  TGI: 12.5 µM
